Key:
Format in all cases: cell-based
KRAS G12D = target: T1, KRAS G12D (Homo sapiens, UniProt P01116, G12D); test: KRAS G12D HiBit assay; conditions: AsPc-1-KRAS (G12D)-HiBit-KI cell, compound treatment for 24 hours; for DC50: absolute DC50
T1 construct: AsPc-1-KRAS (G12D)-HiBit-KI cell (Pharmaron); host or cells: AsPc-1-KRAS (G12D)-HiBit-KI cells (HiBiT knock-in at the endogenous KRAS locus)
Procedure, shortened: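 Cells were treated for 24 h with compounds in a 3-fold, 10-point dilution series from a 0.3 mM DMSO stock, then equilibrated 15 min at room temperature. KRAS G12D HiBiT levels were read by luminescence after lytic Nano-Glo HiBiT reagent with LgBiT; inhibition calculated relative to 0.1% DMSO high control.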

KRAS G12V = target: T2, KRAS G12V (Homo sapiens, UniProt P01116, G12V); test: KRAS G12V HiBit assay; conditions: SW620-KRAS (G12V)-HiBit-KI cells, compound treatment for 24 hours, class symbols
T2 construct: SW620-KRAS (G12V)-HiBit-KI cell (Pharmaron); host or cells: SW620-KRAS (G12V)-HiBit-KI cells (HiBiT knock-in at the endogenous KRAS locus)
Procedure, shortened: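 HiBiT-tagged KRAS G12V cells treated 24 h with compound in a 3-fold, 10-point series (0.3 mM DMSO stock); lytic HiBiT reagent with LgBiT added after 15 min room-temperature equilibration. Degradation calculated against 0.1% DMSO high control.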

KRAS = target: T3, KRAS (Homo sapiens, UniProt P01116); test: KRASamp MSD assay; conditions: KE39 (KRAS amplified) cells, treated with test compounds for 24 hr, MSD readout of KRAS degradation
T3 construct: endogenous in cells; host or cells: KE39 (KRAS amplified) cells
Procedure, shortened: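 KRAS-amplified KE39 cells treated with compound for 24 hr, then lysed in RIPA buffer with protease/phosphatase inhibitors. KRAS protein measured by MSD sandwich immunoassay against a recombinant WT KRAS standard curve; DC50 derived from curve fitting of degradation.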

T1 sequence (P01116 1-188 isoform P01116-2 G12D): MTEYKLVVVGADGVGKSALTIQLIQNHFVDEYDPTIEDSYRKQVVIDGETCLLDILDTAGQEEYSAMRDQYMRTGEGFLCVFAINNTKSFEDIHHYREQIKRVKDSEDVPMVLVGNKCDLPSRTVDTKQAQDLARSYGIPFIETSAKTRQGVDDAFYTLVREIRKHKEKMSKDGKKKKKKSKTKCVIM
T2 sequence (P01116 1-188 isoform P01116-2 G12V): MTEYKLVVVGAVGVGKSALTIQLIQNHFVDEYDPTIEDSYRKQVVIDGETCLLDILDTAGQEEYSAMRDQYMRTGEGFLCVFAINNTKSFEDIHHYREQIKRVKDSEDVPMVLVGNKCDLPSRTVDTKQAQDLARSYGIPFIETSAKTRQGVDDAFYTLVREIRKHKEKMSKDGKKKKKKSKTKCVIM
T3 sequence (P01116 1-188 isoform P01116-2): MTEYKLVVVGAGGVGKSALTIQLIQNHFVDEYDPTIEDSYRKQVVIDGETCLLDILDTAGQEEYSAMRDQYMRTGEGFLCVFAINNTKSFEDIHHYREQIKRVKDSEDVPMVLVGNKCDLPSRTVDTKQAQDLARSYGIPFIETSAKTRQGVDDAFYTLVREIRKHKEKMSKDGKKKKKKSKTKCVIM

Compound	DC50 (KRAS G12D; class symbols)	Dmax (KRAS G12D; class symbols)	DC50 (KRAS G12V)	DC50 (KRAS)	DC50 (KRAS G12D; numeric bounds given in place of class symbols)
C#Cc1c(F)ccc2cc(O)cc(-c3ncc4c(N5CCCCCC5)nc(OC[C@@]56CCCN5[C@H](COC(=O)N5CCC(CN7CCC(c8ccc9c(c8)n(C)c(=O)n9C8CCC(=O)NC8=O)CC7)CC5)CC6)nc4c3F)c12 (stereo partly drawn) [Compound 123, ((3S,7aS)-7a-(((4-(Azepan-1-yl)-7-(8-ethynyl-7-fluoro-3-hydroxynaphthalen-1-yl)-8-fluoropyrido[4,3-d]pyrimidin-2-yl)oxy)methyl)hexahydro-1H-pyrrolizin-3-yl)methyl4-((4-(1-(2,6-dioxopiperidin-3-yl)-3-methyl-2-oxo-2,3-dihydro-1H-benzo[d]imidazol-5-yl)piperidin-1-yl)methyl) piperidine-1-carboxylate]	< 100 nM	> 50%	< 10 nM	< 1 nM	–
CCc1c(F)ccc2cc(O)cc(-c3cc4nc(OC[C@@]56CCCN5[C@H](COC(=O)N5CCC(CN7CCC(c8ccc9c(c8)n(C)c(=O)n9C8CCC(=O)NC8=O)CC7)CC5)CC6)nc(N5CCC[C@@](C)(O)C5)c4cn3)c12 (stereo partly drawn) [Compound 377, ((3S,7aS)-7a-(((7-(8-ethyl-7-fluoro-3-hydroxynaphthalen-1-yl)-4-((R)-3-hydroxy-3-methylpiperidin-1-yl)pyrido[4,3-d]pyrimidin-2-yl)oxy)methyl)hexahydro-1H-pyrrolizin-3-yl)methyl 4-((4-(1-(2,6-dioxopiperidin-3-yl)-3-methyl-2-oxo-2,3-dihydro-1H-benzo[d]imidazol-5-yl)piperidin-1-yl)methyl)piperidine-1-carboxylate]	< 100 nM	–	< 10 nM	< 1 nM	–
CCc1c(F)ccc2cc(O)cc(-c3ncc4c(N5CCN6CCCC6C5)nc(OC[C@@]56CCCN5[C@H](COC(=O)N5CCC7(CC5)CC(N5CCC(c8ccc9c(c8)n(C)c(=O)n9C8CCC(=O)NC8=O)CC5)C7)CC6)nc4c3F)c12 (stereo partly drawn) [Compound 345, ((3S,7aS)-7a-(((7-(8-ethyl-7-fluoro-3-hydroxynaphthalen-1-yl)-8-fluoro-4-(hexahydropyrrolo[1,2-a]pyrazin-2(1H)-yl)pyrido[4,3-d]pyrimidin-2-yl)oxy)methyl)hexahydro-1H-pyrrolizin-3-yl)methyl 2-(4-(1-(2,6-dioxopiperidin-3-yl)-3-methyl-2-oxo-2,3-dihydro-1H-benzo[d]imidazol-5-yl)piperidin-1-yl)-7-azaspiro[3.5]nonane-7-carboxylate]	–	–	> 100 nM	1 to 10 nM	> 100 nM
CCc1c(F)ccc2cc(O)cc(-c3ccc4c(N5CCC[C@@](C)(O)C5)nc(OC[C@@]56CCCN5[C@H](COC(=O)N5CCC7(CC5)CC(N5CCC(c8ccc9c(c8)n(C)c(=O)n9C8CCC(=O)NC8=O)CC5)C7)CC6)nc4c3F)c12 (stereo partly drawn) [Compound 355, ((3S,7aS)-7a-(((7-(8-ethyl-7-fluoro-3-hydroxynaphthalen-1-yl)-8-fluoro-4-((R)-3-hydroxy-3-methylpiperidin-1-yl)quinazolin-2-yl)oxy)methyl)hexahydro-1H-pyrrolizin-3-yl)methyl 2-(4-(1-(2,6-dioxopiperidin-3-yl)-3-methyl-2-oxo-2,3-dihydro-1H-benzo[d]imidazol-5-yl)piperidin-1-yl)-7-azaspiro[3.5]nonane-7-carboxylate]	< 100 nM	–	< 10 nM	< 1 nM	–

Further lines, results first:

DC50 (KRAS G12D; class symbols)	Dmax (KRAS G12D; class symbols)	DC50 (KRAS G12V)	DC50 (KRAS)	DC50 (KRAS G12D; numeric bounds given in place of class symbols)	Compound
< 100 nM	–	< 10 nM	< 1 nM	–	CCc1c(F)ccc2cc(O)cc(-c3ncc4c(N5CCC[C@](C)(N)C5)nc(OC[C@@]56CCCN5[C@H](COC(=O)N5CCC7(CC5)CC(N5CCC(c8ccc9c(c8)n(C)c(=O)n9C8CCC(=O)NC8=O)CC5)C7)CC6)nc4c3F)c12 (stereo partly drawn) [Compound 478, ((3S,7aS)-7a-(((4-((S)-3-amino-3-methylpiperidin-1-yl)-7-(8-ethyl-7-fluoro-3-hydroxynaphthalen-1-yl)-8-fluoropyrido[4,3-d]pyrimidin-2-yl)oxy)methyl)hexahydro-1H-pyrrolizin-3-yl)methyl 2-(4-(1-(2,6-dioxopiperidin-3-yl)-3-methyl-2-oxo-2,3-dihydro-1H-benzo[d]imidazol-5-yl)piperidin-1-yl)-7-azaspiro[3.5]nonane-7-carboxylate]
< 100 nM	–	< 10 nM	1 to 10 nM	–	CCc1c(F)ccc2cc(O)cc(-c3ncc4c(N5CCC[C@@](C)(O)C5)nc(OC[C@@]56CCCN5[C@H](COC(=O)N5CCC(CN7CCC(c8cccc9c8n(C)c(=O)n9C8CCC(=O)NC8=O)CC7)CC5)CC6)nc4c3F)c12 (stereo partly drawn) [Compound 440, ((3S,7aS)-7a-(((7-(8-ethyl-7-fluoro-3-hydroxynaphthalen-1-yl)-8-fluoro-4-((R)-3-hydroxy-3-methylpiperidin-1-yl)pyrido[4,3-d]pyrimidin-2-yl)oxy)methyl)hexahydro-1H-pyrrolizin-3-yl)methyl 4-((4-(1-(2,6-dioxopiperidin-3-yl)-3-methyl-2-oxo-2,3-dihydro-1H-benzo[d]imidazol-4-yl)piperidin-1-yl)methyl)piperidine-1-carboxylate]
< 100 nM	–	< 10 nM	1 to 10 nM	–	CCc1c(F)ccc2cc(O)cc(-c3ncc4c(N5CCC[C@@](C)(O)C5)nc(OC[C@@]56CCCN5[C@H](COC(=O)N5CCC(CN7CCC(c8ccc9c(c8)n(C)c(=O)n9C8CCC(=O)NC8=O)CC7)C5)CC6)nc4c3F)c12 (stereo partly drawn) [Compound 433, ((3S,7aS)-7a-(((7-(8-ethyl-7-fluoro-3-hydroxynaphthalen-1-yl)-8-fluoro-4-((R)-3-hydroxy-3-methylpiperidin-1-yl)pyrido[4,3-d]pyrimidin-2-yl)oxy)methyl)hexahydro-1H-pyrrolizin-3-yl)methyl 3-((4-(1-(2,6-dioxopiperidin-3-yl)-3-methyl-2-oxo-2,3-dihydro-1H-benzo[d]imidazol-5-yl)piperidin-1-yl)methyl)pyrrolidine-1-carboxylate]
< 100 nM	–	< 10 nM	< 1 nM	–	CCc1c(F)ccc2cc(O)cc(-c3ncc4c(N5CCCC(F)(F)C5)nc(OC[C@@]56CCCN5[C@H](COC(=O)N5CC7(CC(N8CCC(c9ccc%10c(c9)n(C)c(=O)n%10C9CCC(=O)NC9=O)CC8)C7)C5)CC6)nc4c3F)c12 (stereo partly drawn) [Compound 469, ((3S,7aS)-7a-(((4-(3,3-difluoropiperidin-1-yl)-7-(8-ethyl-7-fluoro-3-hydroxynaphthalen-1-yl)-8-fluoropyrido[4,3-d]pyrimidin-2-yl)oxy)methyl)hexahydro-1H-pyrrolizin-3-yl)methyl 6-(4-(1-(2,6-dioxopiperidin-3-yl)-3-methyl-2-oxo-2,3-dihydro-1H-benzo[d]imidazol-5-yl)piperidin-1-yl)-2-azaspiro[3.3]heptane-2-carboxylate]
< 100 nM	–	< 10 nM	< 1 nM	–	Cn1c(=O)n(C2CCC(=O)NC2=O)c2cc(F)c(C3CCN(CC4CCN(C(=O)OC[C@@H]5CC[C@]6(COc7nc(N8CCC[C@@](C)(O)C8)c8cnc(-c9cc(O)cc%10ccc(F)cc9%10)c(F)c8n7)CCCN56)CC4)CC3)cc21 (stereo partly drawn) [Compound 447, ((3S,7aS)-7a-(((8-fluoro-7-(7-fluoro-3-hydroxynaphthalen-1-yl)-4-((R)-3-hydroxy-3-methylpiperidin-1-yl)pyrido[4,3-d]pyrimidin-2-yl)oxy)methyl)hexahydro-1H-pyrrolizin-3-yl)methyl 4-((4-(1-(2,6-dioxopiperidin-3-yl)-6-fluoro-3-methyl-2-oxo-2,3-dihydro-1H-benzo[d]imidazol-5-yl)piperidin-1-yl)methyl)piperidine-1-carboxylate]
< 100 nM	–	< 10 nM	< 1 nM	–	CCc1c(F)ccc2cc(O)cc(-c3ncc4c(N5CCC[C@@](C)(O)C5)nc(OC[C@@]56CCCN5[C@H](COC(=O)N5CCC(CN7CCC(c8ccc9c(c8)n(C)c(=O)n9C8CCC(=O)NC8=O)CC7)C(F)(F)C5)CC6)nc4c3F)c12 (stereo partly drawn) [Compound 397, ((3S,7aS)-7a-(((7-(8-ethyl-7-fluoro-3-hydroxynaphthalen-1-yl)-8-fluoro-4-((R)-3-hydroxy-3-methylpiperidin-1-yl)pyrido[4,3-d]pyrimidin-2-yl)oxy)methyl)hexahydro-1H-pyrrolizin-3-yl)methyl 4-((4-(1-(2,6-dioxopiperidin-3-yl)-3-methyl-2-oxo-2,3-dihydro-1H-benzo[d]imidazol-5-yl)piperidin-1-yl)methyl)-3,3-difluoropiperidine-1-carboxylate]

Source: patent US12599672B2, “KRAS proteolysis targeting chimeras” (PAQ Therapeutics Inc., priority 2023, dated 2026)
